In ChEMBL document CHEMBL1201862, “PubChem BioAssay data set” (2004):
The source made the active and inactive calls.

What was measured:
[1] = biological target: T1, Sentrin-specific protease 1 (Homo sapiens, UniProt Q9P0U3); assay: potency of human SENP1 inhibitors, dose response, biochemical, kinetic FRET (AID 651697); assay type: functional; details: read-out: IC50_Mean
[2] = biological target: T1, Sentrin-specific protease 1; assay: Dose response confirmation of small molecule inhibitors of the catalytic domain of the SUMO protease, SENP1 in a FRET assay.; assay type: functional; details: read-out: IC50_Mean
[3] = HEK293 cell cytotoxicity, dose response, cytotoxicity control, plate reader, cherry-picked samples (AID 743446); assay type: functional, cell-based
[4] = HepG2 cell cytotoxicity, dose response, cytotoxicity control, plate reader, cherry-pick, antagonist series (AID 743416); assay type: functional, cell-based
[5] = LGR2 antagonists, dose response, cell-based, HEK293, CRE-luciferase reporter, cherry pick, set 2 (AID 743343); assay type: functional;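 also: transfected cells were stimulated with diluted bursicon conditioned medium after compound addition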
[6] = HepG2 cell cytotoxicity, dose response, cytotoxicity control, ATP luminescence, cherry-pick, activator set 2 (AID 1053143); assay type: functional, cell-based
[7] = MC4R antagonists, dose response, counter-screen for LGR2 antagonist project, cell-based, plate reader, cherry pick (AID 743444); assay type: functional;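 also: transfected HEK 293 cells stimulated with alpha-MSH peptide; potency of inhibitors of the alpha-MSH evoked signal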
[8] = A549 cell cytotoxicity, dose response, cytotoxicity control, plate reader, cherry-pick, antagonist series (AID 743412); assay type: functional, cell-based
[9] = biological target: T2, Low molecular weight phosphotyrosine protein phosphatase (Homo sapiens, UniProt P24666); assay type: functional; details: read-out: IC50_Mean
T2 sequence (P24666 whole entry): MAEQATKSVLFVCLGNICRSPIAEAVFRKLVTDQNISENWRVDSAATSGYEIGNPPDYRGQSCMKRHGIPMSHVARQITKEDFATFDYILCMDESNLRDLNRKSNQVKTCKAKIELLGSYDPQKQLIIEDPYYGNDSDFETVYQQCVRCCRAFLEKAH

[10] = biological target: T2, Low molecular weight phosphotyrosine protein phosphatase; assay type: functional; details: read-out: IC50_Mean; remark: listed apart in the source
Protein Wnt-3a = Protein Wnt-3a (Mus musculus, UniProt P27467); assay: Wnt3a-driven reporter signaling inhibition, dose response, selectivity assay for Gli-SUFU antagonist project, Wnt-LIGHT cells, luminescence (AID 651570); assay type: functional; details: read-out: IC50_Mean;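 also: Wnt-LIGHT reporter cells stimulated with conditioned medium from Wnt3a-producing cells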
INS1 = assay: beta cell apoptosis inhibitors, cytokine rescue, dose response, luminescence, retest (AID 449756); assay type: functional, cell-based; details: Rattus norvegicus;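 also: cell death triggered by IL-1 beta plus TNF-alpha plus IFN-gamma mixture; protective hits raise ATP signal compared with cytokine alone wells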
[11] = biological target: Photoreceptor-specific nuclear receptor (Homo sapiens, UniProt Q9Y5X4); assay type: functional, cell-based;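 also: CHO-S cells with Gal4-NCOR and VP16-NR2E3 two-hybrid luciferase reporter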
[12] = biological target: Arf-GAP with SH3 domain, ANK repeat and PH domain-containing protein 1 (Homo sapiens, UniProt Q9ULH1); assay type: functional;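 also: biochemical fluorescence polarization dose–response screen measuring inhibition of ASAP1; ASAP1 GAP domain stimulating GTP hydrolysis by truncated human ARF1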
[13] = biological target: ADP-ribosylation factor GTPase-activating protein 1 (Rattus norvegicus, UniProt Q62848); assay: Fluorescence polarization-based biochemical high throughput dose response screening assay to identify inhibitors of ADP-ribosylation factor GTPase activating protein 1 (ARFGAP1).; assay type: functional
[14] = CRF-BP/CRF-R2 complex antagonists, dose response, cell-based, uHTS hits, 384-well (AID 651639); assay type: functional, Homo sapiens; details: read-out: IC50_Mean
[15] = biological target: T3, Corticotropin-releasing factor receptor 2/Corticotropin-releasing factor-binding protein (Homo sapiens, UniProt P24387+Q13324); assay: activators of CRF receptor 2 with binding protein – uHTS hits, confirmation (AID 602473); assay type: functional; details: read-out: EC50_Mean
T3 sequence (Q13324 whole entry): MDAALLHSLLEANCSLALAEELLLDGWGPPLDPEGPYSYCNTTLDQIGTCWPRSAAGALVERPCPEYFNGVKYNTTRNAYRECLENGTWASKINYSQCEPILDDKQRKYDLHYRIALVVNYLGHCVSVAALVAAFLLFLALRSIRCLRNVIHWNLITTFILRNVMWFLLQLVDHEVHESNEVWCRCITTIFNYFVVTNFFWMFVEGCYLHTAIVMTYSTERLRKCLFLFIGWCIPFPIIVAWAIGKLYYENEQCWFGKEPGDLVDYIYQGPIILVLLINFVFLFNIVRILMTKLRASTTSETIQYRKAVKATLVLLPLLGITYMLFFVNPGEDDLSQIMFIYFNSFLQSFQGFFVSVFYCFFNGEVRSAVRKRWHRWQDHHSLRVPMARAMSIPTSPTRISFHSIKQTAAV
T3 sequence (P24387 whole entry): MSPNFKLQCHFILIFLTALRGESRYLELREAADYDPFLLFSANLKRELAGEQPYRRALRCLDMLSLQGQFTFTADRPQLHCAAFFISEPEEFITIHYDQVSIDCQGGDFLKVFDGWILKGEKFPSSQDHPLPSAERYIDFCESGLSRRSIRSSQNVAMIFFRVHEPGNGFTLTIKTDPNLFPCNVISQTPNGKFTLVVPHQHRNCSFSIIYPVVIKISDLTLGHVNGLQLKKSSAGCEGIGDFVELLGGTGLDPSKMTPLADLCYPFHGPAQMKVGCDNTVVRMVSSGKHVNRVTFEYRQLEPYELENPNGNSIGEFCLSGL

[16] = biological target: T3, Corticotropin-releasing factor receptor 2/Corticotropin-releasing factor-binding protein; assay: Dose Response confirmation of uHTS hits for small molecule antagonists of the CRF-binding protein and CRF-R2 receptor complex.; assay type: functional; details: read-out: IC50_Mean
[17] = biological target: Dual specificity protein phosphatase 3 (Homo sapiens, UniProt P51452); assay: VHR phosphatase inhibition, dose response, selectivity assay for STEP inhibitor project, biochemical (AID 602374); assay type: functional; details: read-out: IC50_Mean
[18] = biological target: T4, Methionyl-tRNA synthetase, putative (Trypanosoma brucei brucei, UniProt Q38C91); assay type: functional, Trypanosoma brucei brucei strain 927/4 GUTat10.1
T4 sequence (Q38C91 whole entry): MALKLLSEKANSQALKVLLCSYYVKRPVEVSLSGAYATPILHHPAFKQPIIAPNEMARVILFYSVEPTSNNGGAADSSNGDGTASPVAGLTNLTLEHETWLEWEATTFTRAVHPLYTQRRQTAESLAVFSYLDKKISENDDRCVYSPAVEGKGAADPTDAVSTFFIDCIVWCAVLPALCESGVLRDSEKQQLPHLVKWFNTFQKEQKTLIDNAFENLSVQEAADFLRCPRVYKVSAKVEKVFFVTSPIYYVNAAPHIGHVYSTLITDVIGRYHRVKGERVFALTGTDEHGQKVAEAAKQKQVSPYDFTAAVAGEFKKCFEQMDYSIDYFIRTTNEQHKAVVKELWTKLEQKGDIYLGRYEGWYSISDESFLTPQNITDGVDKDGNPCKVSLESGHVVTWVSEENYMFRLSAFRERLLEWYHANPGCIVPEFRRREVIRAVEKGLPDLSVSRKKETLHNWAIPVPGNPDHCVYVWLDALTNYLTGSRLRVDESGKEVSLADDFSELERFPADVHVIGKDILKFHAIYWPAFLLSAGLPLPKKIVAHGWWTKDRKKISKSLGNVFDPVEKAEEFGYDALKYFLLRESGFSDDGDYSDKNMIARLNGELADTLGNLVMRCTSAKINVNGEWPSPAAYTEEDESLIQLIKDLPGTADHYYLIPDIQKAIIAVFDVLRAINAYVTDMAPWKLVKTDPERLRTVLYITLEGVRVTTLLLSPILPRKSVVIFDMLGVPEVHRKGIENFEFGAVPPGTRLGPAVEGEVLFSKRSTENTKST

[19] = biological target: Tyrosine-protein phosphatase non-receptor type 11 (Homo sapiens, UniProt Q06124); assay: SHP2 phosphatase inhibition, dose response, selectivity assay for STEP inhibitor project, biochemical (AID 602367); assay type: functional; details: read-out: IC50_Mean
[20] = biological target: Tyrosine-protein phosphatase non-receptor type 5 (Homo sapiens, UniProt P54829); assay: STEP phosphatase inhibitors, confirmation, biochemical, fluorescence intensity, uHTS hits (AID 602372); assay type: functional; details: read-out: IC50_Mean
[21] = Counterscreen for inhibitors of Trypanosoma brucei methionyl tRNA synthetase (MetRS): Luminescence-based cell-based high throughput dose response assay to identify compounds that are cytotoxic to Jurkat human T lymphocyte cells.; assay type: functional
[22] = biological target: T4, Methionyl-tRNA synthetase, putative; assay type: functional, Trypanosoma brucei brucei strain 927/4 GUTat10.1; remark: listed apart in the source
Beta-galactosidase = Beta-galactosidase (Escherichia coli, UniProt Q8VNN2); assay: Dose response counterscreen for EBI2 assay utilizing the enzyme, b-galactosidase.; assay type: functional
Beta-galactosidase, sequence (Q8VNN2 whole entry): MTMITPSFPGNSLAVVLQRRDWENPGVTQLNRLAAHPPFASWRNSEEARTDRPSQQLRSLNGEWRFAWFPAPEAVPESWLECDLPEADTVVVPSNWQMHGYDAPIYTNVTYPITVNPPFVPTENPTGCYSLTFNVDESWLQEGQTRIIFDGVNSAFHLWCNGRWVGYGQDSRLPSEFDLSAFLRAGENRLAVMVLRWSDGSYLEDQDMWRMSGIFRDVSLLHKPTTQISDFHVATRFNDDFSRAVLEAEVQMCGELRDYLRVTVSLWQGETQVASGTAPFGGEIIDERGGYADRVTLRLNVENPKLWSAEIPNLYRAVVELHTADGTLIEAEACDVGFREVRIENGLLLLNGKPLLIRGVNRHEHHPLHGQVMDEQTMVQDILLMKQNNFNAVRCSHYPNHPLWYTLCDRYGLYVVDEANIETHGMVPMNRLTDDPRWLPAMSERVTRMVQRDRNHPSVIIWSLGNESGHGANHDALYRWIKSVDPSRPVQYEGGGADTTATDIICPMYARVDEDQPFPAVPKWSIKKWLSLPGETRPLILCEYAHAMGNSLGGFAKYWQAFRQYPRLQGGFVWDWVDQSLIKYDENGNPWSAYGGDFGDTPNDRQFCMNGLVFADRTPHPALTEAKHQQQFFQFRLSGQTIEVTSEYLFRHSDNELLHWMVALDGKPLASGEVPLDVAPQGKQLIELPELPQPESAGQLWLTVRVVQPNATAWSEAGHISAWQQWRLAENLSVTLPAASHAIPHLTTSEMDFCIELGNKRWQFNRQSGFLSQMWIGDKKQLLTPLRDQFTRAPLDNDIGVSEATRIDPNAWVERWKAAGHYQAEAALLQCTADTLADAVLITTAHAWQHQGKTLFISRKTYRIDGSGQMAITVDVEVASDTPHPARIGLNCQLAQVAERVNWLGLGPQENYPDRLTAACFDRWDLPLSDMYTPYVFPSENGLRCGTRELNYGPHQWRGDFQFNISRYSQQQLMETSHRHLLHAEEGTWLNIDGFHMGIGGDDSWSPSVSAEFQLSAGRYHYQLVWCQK

T1 sequence (Q9P0U3 whole entry, the tested form may be a part): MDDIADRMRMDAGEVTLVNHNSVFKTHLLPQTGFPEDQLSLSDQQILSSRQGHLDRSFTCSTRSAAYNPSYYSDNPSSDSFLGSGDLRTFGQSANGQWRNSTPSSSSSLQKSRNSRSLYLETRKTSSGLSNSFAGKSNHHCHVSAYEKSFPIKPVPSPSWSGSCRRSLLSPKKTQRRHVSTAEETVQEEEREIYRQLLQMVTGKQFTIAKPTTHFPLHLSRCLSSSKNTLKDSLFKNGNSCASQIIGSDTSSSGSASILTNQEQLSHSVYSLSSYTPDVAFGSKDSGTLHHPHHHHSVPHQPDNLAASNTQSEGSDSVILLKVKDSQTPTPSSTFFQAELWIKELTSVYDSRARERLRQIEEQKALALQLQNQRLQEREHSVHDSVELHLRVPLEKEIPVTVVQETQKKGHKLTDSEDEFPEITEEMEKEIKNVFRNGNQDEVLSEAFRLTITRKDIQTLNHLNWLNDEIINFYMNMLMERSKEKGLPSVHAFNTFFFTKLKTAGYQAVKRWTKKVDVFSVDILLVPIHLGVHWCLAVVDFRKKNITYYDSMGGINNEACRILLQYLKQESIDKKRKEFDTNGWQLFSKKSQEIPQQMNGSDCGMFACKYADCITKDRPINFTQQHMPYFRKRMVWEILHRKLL
Dual specificity protein phosphatase 3, sequence (P51452 whole entry): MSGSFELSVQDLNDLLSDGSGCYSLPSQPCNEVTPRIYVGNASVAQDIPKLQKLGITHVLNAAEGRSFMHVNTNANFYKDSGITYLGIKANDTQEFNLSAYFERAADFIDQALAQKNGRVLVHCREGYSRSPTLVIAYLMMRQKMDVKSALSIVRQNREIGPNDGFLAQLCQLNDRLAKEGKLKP
Tyrosine-protein phosphatase non-receptor type 11, sequence (Q06124 whole entry): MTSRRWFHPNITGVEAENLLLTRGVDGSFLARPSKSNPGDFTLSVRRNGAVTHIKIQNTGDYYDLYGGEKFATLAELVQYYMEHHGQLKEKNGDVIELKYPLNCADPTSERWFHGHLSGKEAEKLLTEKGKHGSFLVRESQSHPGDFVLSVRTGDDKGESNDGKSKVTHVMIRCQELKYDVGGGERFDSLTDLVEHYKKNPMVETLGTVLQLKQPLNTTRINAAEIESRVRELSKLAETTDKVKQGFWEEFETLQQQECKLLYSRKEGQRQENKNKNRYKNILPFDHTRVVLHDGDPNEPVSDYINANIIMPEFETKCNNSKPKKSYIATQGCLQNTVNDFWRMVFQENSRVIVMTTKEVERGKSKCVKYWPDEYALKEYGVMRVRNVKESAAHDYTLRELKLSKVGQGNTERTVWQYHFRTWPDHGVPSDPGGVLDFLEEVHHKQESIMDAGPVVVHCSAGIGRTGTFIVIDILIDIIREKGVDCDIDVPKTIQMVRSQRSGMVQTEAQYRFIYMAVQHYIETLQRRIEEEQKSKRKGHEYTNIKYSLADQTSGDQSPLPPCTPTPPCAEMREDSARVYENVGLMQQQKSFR
Arf-GAP with SH3 domain, ANK repeat and PH domain-containing protein 1, sequence (Q9ULH1 whole entry, the tested form may be a part): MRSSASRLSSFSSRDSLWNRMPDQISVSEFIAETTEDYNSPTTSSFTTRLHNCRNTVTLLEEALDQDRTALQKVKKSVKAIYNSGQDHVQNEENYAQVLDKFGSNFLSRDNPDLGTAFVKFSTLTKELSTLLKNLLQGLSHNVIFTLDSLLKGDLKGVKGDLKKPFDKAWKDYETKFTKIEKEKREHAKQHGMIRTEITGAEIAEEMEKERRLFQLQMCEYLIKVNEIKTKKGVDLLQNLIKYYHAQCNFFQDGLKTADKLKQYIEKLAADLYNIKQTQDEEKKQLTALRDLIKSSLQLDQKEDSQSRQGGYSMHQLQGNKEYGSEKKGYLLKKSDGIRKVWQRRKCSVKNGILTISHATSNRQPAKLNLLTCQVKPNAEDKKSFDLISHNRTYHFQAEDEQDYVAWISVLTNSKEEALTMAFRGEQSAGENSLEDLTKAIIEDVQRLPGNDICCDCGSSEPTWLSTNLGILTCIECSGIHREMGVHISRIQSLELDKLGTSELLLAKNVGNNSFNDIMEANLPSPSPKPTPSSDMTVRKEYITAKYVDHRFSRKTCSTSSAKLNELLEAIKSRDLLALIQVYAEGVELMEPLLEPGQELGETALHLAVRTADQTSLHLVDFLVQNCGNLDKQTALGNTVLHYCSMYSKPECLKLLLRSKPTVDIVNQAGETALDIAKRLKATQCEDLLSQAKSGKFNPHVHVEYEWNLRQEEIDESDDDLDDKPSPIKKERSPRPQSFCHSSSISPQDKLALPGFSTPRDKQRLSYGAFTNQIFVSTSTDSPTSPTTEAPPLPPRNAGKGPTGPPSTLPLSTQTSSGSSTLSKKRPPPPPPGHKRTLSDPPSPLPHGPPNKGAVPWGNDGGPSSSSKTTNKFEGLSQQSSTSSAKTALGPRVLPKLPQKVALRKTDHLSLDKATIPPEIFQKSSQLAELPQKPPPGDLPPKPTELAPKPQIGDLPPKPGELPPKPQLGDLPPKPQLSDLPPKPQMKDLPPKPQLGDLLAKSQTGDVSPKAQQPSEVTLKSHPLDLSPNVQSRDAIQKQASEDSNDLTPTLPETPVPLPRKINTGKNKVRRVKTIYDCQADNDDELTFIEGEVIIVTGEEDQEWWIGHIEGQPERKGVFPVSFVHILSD
Photoreceptor-specific nuclear receptor, sequence (Q9Y5X4 whole entry, the tested form may be a part): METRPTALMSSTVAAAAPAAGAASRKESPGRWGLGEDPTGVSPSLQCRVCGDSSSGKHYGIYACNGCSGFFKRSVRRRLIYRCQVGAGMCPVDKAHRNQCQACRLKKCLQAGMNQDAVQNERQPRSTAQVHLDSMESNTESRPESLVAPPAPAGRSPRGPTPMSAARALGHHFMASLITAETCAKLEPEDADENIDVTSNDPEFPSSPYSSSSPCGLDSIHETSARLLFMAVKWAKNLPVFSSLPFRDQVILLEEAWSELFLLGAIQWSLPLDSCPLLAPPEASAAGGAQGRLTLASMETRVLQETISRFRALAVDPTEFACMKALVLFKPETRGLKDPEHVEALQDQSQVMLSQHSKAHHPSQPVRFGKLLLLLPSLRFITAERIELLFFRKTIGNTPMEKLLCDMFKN
ADP-ribosylation factor GTPase-activating protein 1, sequence (Q62848 whole entry): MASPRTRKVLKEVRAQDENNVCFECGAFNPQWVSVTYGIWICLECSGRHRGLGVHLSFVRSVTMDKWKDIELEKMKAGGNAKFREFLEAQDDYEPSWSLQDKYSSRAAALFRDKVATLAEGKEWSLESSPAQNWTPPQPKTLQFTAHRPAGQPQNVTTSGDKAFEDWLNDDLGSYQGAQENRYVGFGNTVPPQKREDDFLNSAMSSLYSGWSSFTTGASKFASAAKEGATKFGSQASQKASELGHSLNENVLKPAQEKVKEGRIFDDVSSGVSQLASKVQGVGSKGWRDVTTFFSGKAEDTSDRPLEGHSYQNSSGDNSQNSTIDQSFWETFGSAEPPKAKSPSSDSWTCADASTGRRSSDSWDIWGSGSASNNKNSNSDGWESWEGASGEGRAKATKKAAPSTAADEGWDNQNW
Tyrosine-protein phosphatase non-receptor type 5, sequence (P54829 whole entry): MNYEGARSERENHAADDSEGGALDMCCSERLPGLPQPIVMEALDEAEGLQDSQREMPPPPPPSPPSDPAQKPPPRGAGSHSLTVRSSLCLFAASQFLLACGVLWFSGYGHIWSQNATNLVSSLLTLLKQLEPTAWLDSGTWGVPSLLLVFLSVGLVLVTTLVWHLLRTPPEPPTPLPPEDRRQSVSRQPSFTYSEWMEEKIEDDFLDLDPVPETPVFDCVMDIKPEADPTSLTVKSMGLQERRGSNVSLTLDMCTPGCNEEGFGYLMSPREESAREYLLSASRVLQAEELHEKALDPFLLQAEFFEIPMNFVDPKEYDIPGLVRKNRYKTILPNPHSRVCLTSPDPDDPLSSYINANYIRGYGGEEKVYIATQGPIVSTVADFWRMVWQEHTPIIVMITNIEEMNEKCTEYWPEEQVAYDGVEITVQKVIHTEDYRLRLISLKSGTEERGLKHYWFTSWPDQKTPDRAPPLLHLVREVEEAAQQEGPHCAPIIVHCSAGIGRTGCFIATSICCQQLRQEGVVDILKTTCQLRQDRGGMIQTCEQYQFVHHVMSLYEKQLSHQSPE

Q: For `COc1cc(NC2=Nc3cccc4cccc2c34)cc(OC)c1OC`, which IC50 [1] is on record?
A: 68.8 µM (inactive)

Q: And the IC50 [2]?
A: 19.9 µM (active)

Q: For `O=C(Nc1nc2cc3c(cc2s1)OCCO3)c1cccs1`, which AC50 [3] is on record?
A: > 52 µM (inactive)

Q: What about the AC50 [4] of the same compound?
A: > 52 µM (inactive)

Q: What about the AC50 [5] of the same compound?
A: 2.01 µM (active)

Q: What about the AC50 [6] of the same compound?
A: 26 µM (active)

Q: And the AC50 [7]?
A: 3.84 µM (active)

Q: And the AC50 [8]?
A: 28 µM (active)

Q: With `O=C(OCCNc1nc(-c2ccccc2)nc2ccccc12)c1ccncc1` as the compound, how does the IC50 [9] read?
A: 11.8 µM (active)

Q: What about the IC50 [10] of the same compound?
A: 24.6 µM (inactive)

Q: Which IC50 (Protein Wnt-3a) does the source give for `CCN(CC)C(=O)c1ccc(S(=O)(=O)N2CCC(c3nc4ccccc4s3)CC2)cc1` here?
A: 39.7 µM (inactive)

Q: What about the AC50 (INS1) of the same compound?
A: 5.69 µM (active)

Q: For `FC(F)Sc1ccc(NC(=S)N2CCN(c3ccccn3)CC2)cc1`, which IC50 [11] is on record?
A: 2.52 µM (active)

Q: With `Cc1ccc2nc(SCC(=O)N3CCC(Cc4ccccc4)CC3)nc(=O)n2c1` as the compound, how does the IC50 [12] read?
A: 32.7 µM (inactive)

Q: What about the IC50 [13] of the same compound?
A: 26.9 µM (inactive)

Q: What does the source list for `O=S(=O)(Nc1nc2ccccc2s1)c1ccc(Cl)s1`?
A: IC50 [14]: 8.22 µM (active); AC50 (INS1): 31.8 µM (active); EC50 [15]: > 53 µM (inactive); IC50 [16]: 6.02 µM (active)

Q: With `Cc1ccc(S(=O)(=O)c2cnc3ccc(Cl)cc3c2O)cc1` as the compound, how does the IC50 [17] read?
A: 26.9 µM (inactive)

Q: And the IC50 [18]?
A: 4.9 µM (active)

Q: And the IC50 [19]?
A: 14.5 µM (active)

Q: What about the IC50 [20] of the same compound?
A: 39.1 µM (inactive)

Q: And the IC50 [21]?
A: 83.4 µM (inactive)

Q: What about the IC50 [22] of the same compound?
A: 119 µM (inactive)

Q: With `CCOC(=O)c1ccc(S(=O)(=O)N2CCN(C(=O)c3cc4ccccc4o3)CC2)cc1` as the compound, how does the IC50 (Beta-galactosidase) read?
A: > 80 µM (inactive)
